Measured values taken from PubChem BioAssay AID1963873 (Molecular Pharmacology Branch, DTP, NCI, 2024).

Tested on: 276233-004-R-J1-PDC KRAS spheroids with HUVEC/MSC, viability
Test: Anticancer human tumor 276233-004-R-J1-PDC patient-derived colon adenocarcinoma cell line growth inhibition [KRAS2]
Conditions: for IC50: curve of first compound; for viability, T/C: stronger effect = lower value
Summary of the method: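 Combination screen of spheroid viability in tumor-cell co-cultures with endothelial (HUVEC) and mesenchymal stem cell stroma. Each agent was tested in half-log dilutions, topping at clinical Cmax or at 10 microM without a known Cmax.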

[1] = second compound 0.1 µM, first compound 0.01 µM
[2] = second compound 0.1 µM, first compound 0.0316 µM
[3] = second compound 0.1 µM, first compound 0.1 µM
[4] = second compound 0.1 µM, first compound 0.316 µM
[5] = second compound 0.1 µM, first compound 1 µM
[6] = second compound 0.1 µM, first compound 3.16 µM
[7] = second compound 0.316 µM, first compound 0.01 µM
[8] = second compound 0.316 µM, first compound 0.0316 µM
[9] = second compound 0.316 µM, first compound 0.1 µM
[10] = second compound 0.316 µM, first compound 0.316 µM
[11] = second compound 0.316 µM, first compound 1 µM
[12] = second compound 0.316 µM, first compound 3.16 µM
[13] = second compound 1 µM, first compound 0.01 µM
[14] = second compound 1 µM, first compound 0.0316 µM
[15] = second compound 1 µM, first compound 0.1 µM
[16] = second compound 1 µM, first compound 0.316 µM
[17] = second compound 1 µM, first compound 1 µM
[18] = second compound 1 µM, first compound 3.16 µM
[19] = second compound 3.16 µM, first compound 0.01 µM
[20] = second compound 3.16 µM, first compound 0.0316 µM
[21] = second compound 3.16 µM, first compound 0.1 µM
[22] = second compound 3.16 µM, first compound 0.316 µM
[23] = second compound 3.16 µM, first compound 1 µM
[24] = second compound 3.16 µM, first compound 3.16 µM
[25] = second compound 10 µM, first compound 0.01 µM
[26] = second compound 10 µM, first compound 0.0316 µM
[27] = second compound 10 µM, first compound 0.1 µM
[28] = second compound 10 µM, first compound 0.316 µM
[29] = second compound 10 µM, first compound 1 µM
[30] = second compound 10 µM, first compound 3.16 µM
[31] = second compound 0.1 µM, first compound 10 µM
[32] = second compound 0.316 µM, first compound 10 µM
[33] = second compound 1 µM, first compound 10 µM
[34] = second compound 3.16 µM, first compound 10 µM
[35] = second compound 10 µM, first compound 10 µM
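Also: cells exposed to agents for seven days before viability read.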
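For viability, T/C in this document: 100% = DMSO vehicle control wells and lower values mean fewer viable cells.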

SMILES	IC50 (second compound 0.1 µM) [µM]	IC50 (second compound 0.316 µM) [µM]	IC50 (second compound 1 µM) [µM]	IC50 (second compound 3.16 µM) [µM]	IC50 (second compound 10 µM) [µM]	viability, T/C [2] [%]	viability, T/C [3] [%]	viability, T/C [4] [%]	viability, T/C [5] [%]	viability, T/C [8] [%]	viability, T/C [9] [%]	viability, T/C [10] [%]	viability, T/C [11] [%]	viability, T/C [14] [%]	viability, T/C [15] [%]	viability, T/C [16] [%]	viability, T/C [17] [%]	viability, T/C [20] [%]	viability, T/C [21] [%]	viability, T/C [22] [%]	further results
CC1COCCN1c1cc(-c2ccnn2C)c2ccnc(-c3ccn[nH]3)c2n1 (stereo not given) + CC1OCC2(CCN(c3cnc(Sc4ccnc(N)c4Cl)c(N)n3)CC2)C1N	> 3.16	2.18	2.83	0.632	0.737	96	78.3	86.2	60.9	106	84.8	74.6	61.1	73.2	67.9	68.5	57.4	86.2	64.8	57	viability, T/C [1]: 107%; viability, T/C [6]: 56.1%; viability, T/C [7]: 76.9%; viability, T/C [12]: 45%; viability, T/C [13]: 87.7%; viability, T/C [18]: 47.5%; viability, T/C [19]: 64.1%; viability, T/C [23]: 46.8%; viability, T/C [24]: 40.7%; viability, T/C [25]: 61.1%; viability, T/C [26]: 66.4%; viability, T/C [27]: 56.6%; viability, T/C [28]: 49.2%; viability, T/C [29]: 52.9%; viability, T/C [30]: 41.1%
CCN1CCN(Cc2ccc(Nc3ncc(F)c(-c4cc(F)c5nc(C)n(C(C)C)c5c4)n3)nc2)CC1 + CC1OCC2(CCN(c3cnc(Sc4ccnc(N)c4Cl)c(N)n3)CC2)C1N	> 1	> 1	> 1	> 1	> 1	87	76.5	93.5	111	80.7	85.6	104	99.5	69.3	72.3	93.4	67	68.8	62.8	54.7	viability, T/C (second compound 0.1 µM, first compound 0.00316 µM): 89.9%; viability, T/C [1]: 99.2%; viability, T/C (second compound 0.316 µM, first compound 0.00316 µM): 81.3%; viability, T/C [7]: 89.6%; viability, T/C (second compound 1 µM, first compound 0.00316 µM): 83.7%; viability, T/C [13]: 86%; viability, T/C (second compound 3.16 µM, first compound 0.00316 µM): 74.5%; viability, T/C [19]: 66.5%; viability, T/C [23]: 70%; viability, T/C (second compound 10 µM, first compound 0.00316 µM): 51.2%; viability, T/C [25]: 71%; viability, T/C [26]: 58.7%; viability, T/C [27]: 53.6%; viability, T/C [28]: 64.6%; viability, T/C [29]: 63%
CCNC(=O)CC1N=C(c2ccc(Cl)cc2)c2cc(OC)ccc2-n2c(C)nnc21 (stereo not given) + CC1OCC2(CCN(c3cnc(Sc4ccnc(N)c4Cl)c(N)n3)CC2)C1N	> 10	7.12	3.16	0.392	0.53	94.5	85.6	71.5	66.8	89	73.1	73.6	58.2	79.8	71.5	63.9	52.5	72.6	71.6	51.5	viability, T/C [6]: 56.4%; viability, T/C [31]: 72.8%; viability, T/C [12]: 52.5%; viability, T/C [32]: 49.1%; viability, T/C [18]: 46.9%; viability, T/C [33]: 52.2%; viability, T/C [23]: 44.4%; viability, T/C [24]: 43.3%; viability, T/C [34]: 41.4%; viability, T/C [26]: 55%; viability, T/C [27]: 56.6%; viability, T/C [28]: 52.2%; viability, T/C [29]: 48.2%; viability, T/C [30]: 41.6%; viability, T/C [35]: 42.4%
Cn1nccc1Nc1nccc(-c2cc3c(s2)C(C)(C)N(CCN2CCOCC2)C3=O)n1 + CC1OCC2(CCN(c3cnc(Sc4ccnc(N)c4Cl)c(N)n3)CC2)C1N	2.31	0.83	0.476	0.32	< 0.0316	86.9	82.3	76.8	70.3	79.6	76.5	65.5	47.2	78.5	73.2	56.2	38	60.7	62.3	49.4	viability, T/C [6]: 37.7%; viability, T/C [31]: 47%; viability, T/C [12]: 33.1%; viability, T/C [32]: 28.8%; viability, T/C [18]: 26%; viability, T/C [33]: 22.2%; viability, T/C [23]: 30.3%; viability, T/C [24]: 19.7%; viability, T/C [34]: 16.4%; viability, T/C [26]: 48.4%; viability, T/C [27]: 38.2%; viability, T/C [28]: 32.1%; viability, T/C [29]: 23.5%; viability, T/C [30]: 19%; viability, T/C [35]: 16.9%
